Experimental findings from ChEMBL document CHEMBL3507680, “University of Dundee, Gates Library screen for HepG2 cell viability” are described below.

The nature of this data set: Human HepG2 cell viability assay in 384 well format. It is filed as toxicity, cell-based. Set-up: dose 125 nL, time 70.5 hour; concentration not given beside the values. To be noted: HepG2 cells, read-out: Inhibition.
For `COc1ccc(CN2CCN(CC3CC3)[C@@H]3CS(=O)(=O)C[C@@H]32)cc1C`, the cytotoxicity at 70.5 h was 10.6%.
The same measure for `CCC(NC(=O)C(C)(C)C)c1ccccc1C` (stereo unspecified): 25.3%; for `COc1ccc(-c2n[nH]cc2CN(C)Cc2nnc(C)o2)c(F)c1`: 1.72%.
Take `CCC(Oc1ccc(N(C)S(C)(=O)=O)cc1)C(=O)N(C)C` (stereo unspecified): the cytotoxicity at 70.5 h was -3.36%.
With `COCCN(C)CCN1CC2(CCN(C3CCCNC3)CC2)OC1=O` (stereo unspecified), the cytotoxicity at 70.5 h is -4.32%.
To `CCCS(=O)(=O)N1CCN(c2ccnc(N3CCCCC3)n2)CC1` belongs -8.56%; to `CN(C)S(=O)(=O)N1CCN(c2ccnc(N3CCCCC3)n2)CC1`, -8.18%.
For the compound `COc1ccccc1NC(=O)c1cc2c([nH]c1=O)CCCC2=O`, the cytotoxicity at 70.5 h was -11.1%.
In the case of `CCn1c(Cn2cncn2)nnc1C1CCN(CCN)CC1`, the cytotoxicity at 70.5 h is 17.7%.
The same measure for `CCc1nnc(CN(CC)C(=O)C2CC(=O)N(CC)C2)o1` (stereo unspecified): -1.3%; for `CCn1c(CN2CCCC2)nnc1C1CCN(Cc2cccnc2)CC1`: 19.5%.
To `COc1ccc(NC(=O)Cn2nc(C)c(C)cc2=O)cc1` belongs 1.99%.
To `CCCN1CCCC1c1ccc(C(=O)N2CCOCC2)s1` (stereo unspecified) belongs 0.549%; to `O=C(NCCCc1ccco1)c1ccc(N2CCOCC2)cc1`, 4.57%; to `COc1ccc2cc(C(=O)N3CC[C@H](CO)[C@H](O)C3)n(C)c2c1`, 2.19%.
As for `COCCN1C[C@H]2CC[C@@H]1CN(C(=O)c1ccc(Cl)cc1)C2`, the cytotoxicity at 70.5 h is -6%.
The same measure for `COc1cc(-c2ccc(F)c3c2OC(CN)C3)cc(OC)c1OC` (stereo unspecified): 6.54%.
The same measure for `CCC(=O)NCc1ccc(N2CCCCC2)cc1`: -2.28%.
To `COc1cccc(-n2cc(CN(C)C(=O)c3cnc(O)cn3)cn2)c1` belongs -9%; to `COc1cccc(OC2CN(C(=O)c3ccoc3C)C2)c1`, 10.7%.
`Cn1ncc2c(NC3CCC3)nc(-c3ccncc3)nc21`: the cytotoxicity at 70.5 h is -0.235%.
To `COC(=O)N1CCC2(CC1)CC(c1ccccc1)CN(C)C2` (stereo unspecified) belongs -0.459%.
To `Cc1nc(NCCSc2cnn[nH]2)c2cccnc2n1` belongs 5.69%.
The same measure for `CSc1ccc(CN(CCO)Cc2nccn2C)cc1`: -3.61%; for `COCCN(C)C[C@@H]1CN(c2cc(C)nc3ccccc23)C[C@@H]1CO`: -14.9%; for `COCCCN1CCN(C(=O)C(c2cccc(F)c2)N(C)C)CC1` (stereo unspecified): -5.78%.
As to `Cc1ccsc1CN1CCCC(CNC(=O)c2ccc(N)nc2)C1` (stereo unspecified), the cytotoxicity at 70.5 h is -8.08%.
To `CC(C)Cn1cncc1CNC1CCSCC1` belongs 42.7%; to `Cc1cnc(C(=O)N2CCCC(Cn3cc(C4CC4)nn3)C2)cn1` (stereo unspecified), -10.1%; to `COc1ccccc1Oc1ncccc1CNC(=O)C1COC(=O)N1` (stereo unspecified), -14.6%.
With `CCCSc1ncc(-c2nccn2CCO)cn1`, the cytotoxicity at 70.5 h was -12.8%.
To `COc1cccc(F)c1-c1c[nH]c(C)n1` belongs 11.7%; to `O=C(c1cnc(Nc2ccccc2)nc1)N1CCS(=O)(=O)CC1`, -8.85%.
The same measure for `CNC(=O)Cn1c(-c2ccco2)nn(-c2ccccc2OC)c1=O`: 9.58%.
The same measure for `O=C(c1ccc(C2CCCO2)s1)N1CCOCC1` (stereo unspecified): -5.89%; for `O=C(NCc1cn2c(n1)SCC2)c1ccc(CN2CCCCC2)cc1`: 2.13%; for `O=C1NC2(CCN(C/C=C/c3ccccc3)CC2)CC1c1ccccc1` (stereo unspecified): 10.6%.
As to `Cc1cc2nc(C(C)C)cc(NCCNc3ncccc3C)n2n1`, the cytotoxicity at 70.5 h was determined as 12.1%.
Turning to `CN(C)c1nc2c(c(N3CCC4(CC3)CNC(=O)C4)n1)CCCC2`, the cytotoxicity at 70.5 h was -3.91%.
To `CC(C)c1nc(CCN(C)C(=O)C2COc3ccccc3C2)no1` (stereo unspecified) belongs -3.01%; to `CCc1noc(C)c1C(=O)N1C[C@H](NS(C)(=O)=O)[C@@H](C2CC2)C1`, -3.78%.
In the case of `CCc1cc(N2CCC(n3cc(C(=O)NCC(C)C)nn3)CC2)ncn1`, the cytotoxicity at 70.5 h came out at 0.723%.
The same measure for `N[C@@H]1c2ccccc2C2(CCN(C(=O)c3ccccc3O)CC2)[C@H]1O`: -6.11%; for `c1ccc(Oc2cccc(OC34CCCN(CC3)C4)c2)cc1` (stereo unspecified): -12%.
The same measure for `Fc1ccc(CCC2CCCN(Cc3c[nH]cn3)C2)c(F)c1` (stereo unspecified): -3.29%.
The same measure for `NC(=O)c1ccc(OCCCN2C[C@H](C3CC3)[C@@H](N)C2)cc1`: -5.8%; for `N#Cc1c(C2CC2)cc(-c2ccc(F)c(F)c2)nc1N`: -3.46%; for `CNS(=O)(=O)CCNC(=O)[C@@]12CNC[C@@H]1CN(C1CCCC1)C2`: -0.951%.
Regarding `COCC(=O)N1CCc2cccc(S(=O)(=O)N3CCN(C)CC3)c2C1`, the cytotoxicity at 70.5 h was -2.39%.
On to `O=C1CCC(CCC(=O)N2CCCC2c2nccs2)=NN1` (stereo unspecified), for which the cytotoxicity at 70.5 h was 8.6%.
To `CCCN1CCC(Cc2noc(-c3cc4cccnc4nc3C)n2)CC1` belongs 0.578%.
The same measure for `CC(O)c1cccc(N2CCC3(CC2)Nc2ccccc2NC3=O)n1` (stereo unspecified): 21.3%.
The same measure for `CSc1nccc(N2CCN(C)C3(CCC(=O)N(CC4CC4)CC3)C2)n1` (stereo unspecified): 1.61%; for `O=C(c1cnccn1)N1C[C@@H]2CC[C@H](C1)N(C(=O)CCc1ccsc1)C2`: -0.591%.
`CCc1c(C)nc(C)nc1N1CCC(NCCSc2nnnn2C)CC1`: the cytotoxicity at 70.5 h is -6.49%.
To `Cc1c(C(=O)NCC2CCN(Cc3c[nH]cn3)C2)[nH]c2ccccc12` (stereo unspecified) belongs 8.7%; to `c1cncc(NCCCNC2CCSC2)c1` (stereo unspecified), -3.16%; to `CCCn1cc(-c2ccnc(NC3CCc4ccccc43)n2)c(C)n1` (stereo unspecified), 4.9%.
In the case of `COc1ccc(C(=O)N2CC(c3ccncc3)C2)c(OC)c1OC`, the cytotoxicity at 70.5 h was -5.75%.
Take `Cc1cc(C)n(C2CCCN(C(=O)c3ccc4c(c3)COC4)C2)n1` (stereo unspecified): the cytotoxicity at 70.5 h came out at 1.09%.
On to `Cc1cc(C)n(CC2CCCN2C(=O)c2cccn3ccnc23)n1` (stereo unspecified), for which the cytotoxicity at 70.5 h was -1.92%.
The same measure for `Cc1nc(C)n(C2CCCN(C(=O)c3ccc(O)nc3)C2)n1` (stereo unspecified): -5.29%; for `CC(C)=CCN1CCN(Cc2nccn2C)C(C)C1` (stereo unspecified): 22%; for `CCc1nc(C2CCCN2C(=O)c2ccc(N(C)C)nn2)no1` (stereo unspecified): -0.946%.
The same measure for `Cc1cc(C(=O)N2CCCC2c2noc(C(C)C)n2)c(C)o1` (stereo unspecified): -3.94%.
The same measure for `c1cnn(CC2CCCCN2c2ncnc3ccsc23)c1` (stereo unspecified): 18.2%.
Consider `CC(=O)N(Cc1ncc(C(C)C)o1)C1CCN(Cc2cc(C)no2)C1` (stereo unspecified), for which the cytotoxicity at 70.5 h is -4.1%.
In the case of `CC(=O)N(Cc1ncc(C(C)C)o1)C1CCN(Cc2cc(C)on2)C1` (stereo unspecified), the cytotoxicity at 70.5 h was -6.93%.
For the compound `Cc1nc(CN2CCCC2c2noc(C3CC3)n2)oc1C` (stereo unspecified), the cytotoxicity at 70.5 h was -9.58%.
The same measure for `c1cnc(-c2nc(CN3CCCC(N4CCCC4)C3)cs2)nc1` (stereo unspecified): -3.36%.
The same measure for `CCN(CC)CC1CCN(C(=O)CCn2cccn2)CC1`: -1.21%; for `COc1cccc(CC(=O)N2CCC(NCc3c[nH]nc3C)CC2)c1`: -4.19%.
To `COC1CCN(C(=O)CCn2cccn2)CC1` belongs -8.03%; to `CCCC1CCCN(Cc2csc(-c3ncccn3)n2)CC1` (stereo unspecified), -1.51%; to `Cc1nc(C2CCCN2Cc2nc(C3CC3)no2)no1` (stereo unspecified), -2.5%.
`CC(=O)NC1CCCN(Cc2csc(-c3ncccn3)n2)C1` (stereo unspecified): the cytotoxicity at 70.5 h came out at 18.7%.
Take `CC(=O)NCCNC(=O)c1sc(-c2ccc(Cl)cc2)nc1C`: the cytotoxicity at 70.5 h was -4.15%.
To `COC(=O)CNC(=O)c1sc(-c2ccc(Cl)s2)nc1C` belongs -3.49%.
The same measure for `O=C(Nc1ccc(CCN2CCOCC2)cc1)C1CC1`: -4.46%; for `CCN1CCN(C(=O)c2ccc(Cn3ccccc3=O)o2)CC1`: -9.18%.
The same measure for `Cc1nc(-c2ccc(Cl)s2)sc1C(=O)NCCCC(N)=O`: -4.42%; for `O=C(NCc1csc(Br)c1)N1CCC(O)CC1`: -4.25%.
Consider `NC(=O)C1CCN(Cc2csc(-c3ncccn3)n2)CC1`, for which the cytotoxicity at 70.5 h was 18.7%.
To `Cc1ccc(-c2nc(C(=O)N3CCCC(C(N)=O)C3)cs2)c(C)c1` (stereo unspecified) belongs -8.34%.
The same measure for `Cc1ncc2c(n1)CN(Cc1nnc(-c3ccccc3)o1)CC2`: -7.67%; for `c1cncc(-c2noc(CNC3CCc4ncnn4C3)n2)c1` (stereo unspecified): -5.95%.
In the case of `c1csc(-c2noc(CNC3CCc4ncnn4C3)n2)c1` (stereo unspecified), the cytotoxicity at 70.5 h was -8.26%.
The same measure for `CCC(=O)N1CCN(C(=O)Cn2cccn2)CC1`: -4.66%; for `O=C(Nc1ccc(CCN2CCC(O)CC2)cc1)C1CCCOC1` (stereo unspecified): -3.52%; for `Cc1ccc(CCC(=O)N2CCOCC2c2ncon2)c(C)c1` (stereo unspecified): 13.3%.
`c1ncn(CC2CN(Cc3nc(C4CC4)no3)CCO2)n1` (stereo unspecified): the cytotoxicity at 70.5 h is 17.2%.
For the compound `CN(C)CC1CN(Cc2nc(-c3ccccn3)no2)CCO1` (stereo unspecified), the cytotoxicity at 70.5 h came out at 16.4%.
To `CC(C)c1nc(CN2CCOC(Cn3cncn3)C2)no1` (stereo unspecified) belongs -8.23%; to `CC(NC(=O)NCCCN1CCCC1=O)c1nncn1C` (stereo unspecified), -9.31%; to `CC(NC(=O)NCCCN1CCc2ccccc2C1)c1nncn1C` (stereo unspecified), 7.19%.
As for `CS(=O)(=O)NCCC(=O)Nc1cnn(-c2ccccc2Cl)c1`, the cytotoxicity at 70.5 h was -11.9%.
To `CCCc1nc(C(C)(C)NC(=O)C2CC(=O)N(CCOC)C2)no1` (stereo unspecified) belongs -10.7%; to `CCCc1nc(C(C)(C)NC(=O)C2CC(=O)N(C3CC3)C2)no1` (stereo unspecified), -6.42%.
Regarding `CC(NC(=O)NCCCN1CCCCCC1=O)c1nncn1C` (stereo unspecified), the cytotoxicity at 70.5 h worked out at 10.2%.
The same measure for `COc1c(CNCCNC(=O)c2ccc(C)cc2)c(C(C)C)nn1C`: -8.14%; for `CCOc1cc(C)nc(N2CCN(C(=O)c3ccncc3)CC2)n1`: 5.92%.
